In PMC8002452, “Molecular Basis of AmpC β-Lactamase Induction by Avibactam in Pseudomonas aeruginosa: PBP Occupancy, Live Cell Binding Dynamics and Impact on Resistant Clinical Isolates Harboring PDC-X Variants” (International Journal of Molecular Sciences, 2021):

Columns and labels:
PBP4 = PBP4 (Pseudomonas aeruginosa, UniProt Q9HZG1); test: Intact cells' time-course of PBP-binding assay; type: cell-based, P. aeruginosa PAO1; conditions: 1 h; intact PAO1 cells, 4 µg/mL avibactam, 60 min; read-out: PBP4 fraction bound
Method: (§1) Figure 2 Time-course of intact cells and isolated PBP-binding assay. P. aeruginosa PAO1 cultures (a) and isolated PBP-containing membrane preparations (b) were incubated for 15, 30 and 60 min in the presence of 4 µg/mL avibactam (AVI). After isolating PBP-containing membranes, preparations were labeled with 25 µM bocillin FL. The graphs represent the PBP fraction unbound relative to each time control over time. The mean PBP fraction unbound values from at least three independent experiments ± standard deviations are shown.
(§2) P. aeruginosa PAO1 cultures grown to the midexponential phase (7.6 log10 CFU/mL) were preincubated in cation-adjusted Mueller–Hinton broth (CAMHB) at 37 °C (180 rpm) for 20 min. Afterwards, 4 µg/mL of avibactam (AVI) was added, and the bacterial cultures were incubated (37 °C, 180 rpm). Control and treatment samples were taken after 15, 30 and 60 min incubation, kept in ice and centrifuged (3220× g for 10 min at 4 °C). The bacterial pellets were washed in 30 mL phosphate-buffered saline (PBS) (pH 7.5) four times, resuspended in 10 mL of PBS and sonicated by using a Digital Sonifier Unit model S-450D (Branson Ultrasonics Corp., Danbury, CT, USA) at 40% amplitude for three 2 min bursts (while immersed in an ice bath) and centrifuged at 3220× g for 15 min at 4 °C. Membranes containing the PBPs were isolated by ultracentrifugation at 150,000× g for 30 min at 4 °C using an Optima L100XP Ultra centrifuge (Beckman Coulter, Inc., Palo Alto, CA, USA) and were resuspended in 60 μL of PBS. Total protein content was measured using the Quick Start Bradford protein assay kit with bovine serum albumin as a standard (Bio-Rad Laboratories, Hercules, CA, USA), according to the manufacturer’s instructions. To determine the PBP fraction unbound, membranes containing PBPs (20 μL, at 0.5 mg/mL) were labeled with a 25 μM concentration of the fluorescent penicillin bocillin FL [32]. Labeled PBPs were denatured and separated through 4–15% SDS–polyacrylamide gel electrophoresis (Bio-Rad Laboratories, Hercules, CA, USA). Labeled PBPs were visualized using a Typhoon FLA 9500 biomolecular imager (GE Healthcare Bio-Sciences AB, Uppsala, Sweden) (excitation at 488 nm and emission at 530 nm), and binding to different PBPs was determined from at least three independent experiments using ImageQuant TL software v8.1.0.0 (GE Healthcare Bio-Sciences AB, Uppsala, Sweden).

PBP2 = target: T1, PBP2 (Pseudomonas aeruginosa, UniProt Q9X6V3); test: Intact cells' time-course of PBP-binding assay; type: cell-based, P. aeruginosa PAO1; conditions: intact PAO1 cells, 4 µg/mL avibactam, 60 min
T1 construct: PBP-containing membranes were isolated by ultracentrifugation; endogenous in cells; host or cells: P. aeruginosa PAO1 wild type (membrane preparations or intact cells)
Method: as §1, §2

PBP5/6 = PBP5/6 (Pseudomonas aeruginosa, UniProt G3XD74); test: Intact cells' time-course of PBP-binding assay; type: cell-based, P. aeruginosa PAO1; conditions: intact PAO1 cells, 4 µg/mL avibactam, up to 60 min
Method: as §1, §2

PBP3 [1] = target: T2, PBP3 (Pseudomonas aeruginosa, UniProt G3XD46); test: Intact cells' time-course of PBP-binding assay; type: cell-based, P. aeruginosa PAO1; conditions: intact PAO1 cells, 4 µg/mL avibactam, up to 60 min
T2 construct: PBP-containing membranes were isolated by ultracentrifugation; endogenous in cells; host or cells: P. aeruginosa PAO1 wild type (membrane preparations or intact cells)
Method: as §1, §2

PBP1b = PBP1b (Pseudomonas aeruginosa, UniProt G3XD31); test: Intact cells' time-course of PBP-binding assay; type: cell-based, P. aeruginosa PAO1; conditions: 1 h; intact PAO1 cells, 4 µg/mL avibactam, 60 min; read-out: PBP1b fraction bound
Method: as §1, §2

PBP1a = target: T3, PBP1a (Pseudomonas aeruginosa, UniProt Q07806); test: Intact cells' time-course of PBP-binding assay; type: cell-based, P. aeruginosa PAO1; conditions: intact PAO1 cells, 4 µg/mL avibactam, up to 60 min
T3 construct: PBP-containing membranes were isolated by ultracentrifugation; endogenous in cells; host or cells: P. aeruginosa PAO1 wild type (membrane preparations or intact cells)
Method: as §1, §2

PBP3 [2] = target: T2, PBP3; test: biochemical; type: binding, P. aeruginosa PAO1; conditions: PAO1 membranes 0.5 mg/mL, 30 min, 25 µM bocillin FL
Method: PBP-binding affinity was determined using previously described methods. Briefly, P. aeruginosa PAO1 cultures grown to the midexponential phase (7.6 log10 CFU/mL) were incubated in CAMHB at 37 °C and 180 rpm, washed and centrifuged (3220× g for 10 min at 4 °C). Bacterial pellets were washed in 30 mL of PBS buffer (pH 7.5), resuspended in 10 mL of PBS and sonicated at 40% amplitude for three 2 min bursts (while immersed in an ice bath) and centrifuged at 3220× g for 15 min at 4 °C. PBP-containing membranes were isolated by ultracentrifugation at 150,000× g for 30 min at 4 °C. Total protein concentrations were measured through the Bradford method.
Subsequently, the fluorescent penicillin bocillin FL was added to a 25 μM final concentration. Labeled PBPs were denatured and separated through 4–15% SDS–polyacrylamide gel electrophoresis. Labeled PBPs were visualized using a Typhoon FLA 9500 biomolecular imager (GE Healthcare Bio-Sciences AB, Uppsala, Sweden) (excitation at 488 nm and emission at 530 nm), and binding was determined from at least three independent experiments using ImageQuant TL software v8.1.0.0 (GE Healthcare Bio-Sciences AB, Uppsala, Sweden).

[3] = tested on: ampC mRNA in 110-G8 (AmpC DelG229–E247; PDC-223, CAZ/AVI-resistant ST175 clinical isolate); test: qRT-PCR quantification of AmpC induction; type: cell-based, P. aeruginosa; conditions: IPM 8, FOX 64, AVI 16 µg/mL, relative to strain basal t=0
Method: (§3) Samples were taken at 0, 30 and 180 min. Total RNA was extracted with the RNeasy Mini Kit (Qiagen, Hilden, Germany) and treated with TURBO DNase (Thermo Fisher Scientific, Waltham, MA, USA) to remove contaminating DNA. Samples were afterwards normalized to 50 ng/µL.
(§4) Normalized samples were then used for one-step reverse transcription and real-time PCR amplification using the QuantiTect SYBR green qRT-PCR kit (Qiagen, Hilden, Germany) in a CFX Connect Real-Time PCR System (Bio-Rad, Hercules, California, USA). Previously described primer pairs ACrnaF/ACrnaR and rpsL-1/rpsL-2 were used for the amplification of ampC and housekeeping gene rpsL, respectively. The mean values of relative mRNA expression (2^−ΔΔCt) obtained from at least two independent biological replicates and duplicate technical replicates were considered.

[4] = tested on: ampC mRNA in wild-type PAO1; test: qRT-PCR quantification of AmpC induction; type: cell-based, P. aeruginosa; conditions: IPM 8, FOX 64, AVI 16 µg/mL, relative to strain basal t=0
Method: as §3, §4

T2 sequence (G3XD46 whole entry): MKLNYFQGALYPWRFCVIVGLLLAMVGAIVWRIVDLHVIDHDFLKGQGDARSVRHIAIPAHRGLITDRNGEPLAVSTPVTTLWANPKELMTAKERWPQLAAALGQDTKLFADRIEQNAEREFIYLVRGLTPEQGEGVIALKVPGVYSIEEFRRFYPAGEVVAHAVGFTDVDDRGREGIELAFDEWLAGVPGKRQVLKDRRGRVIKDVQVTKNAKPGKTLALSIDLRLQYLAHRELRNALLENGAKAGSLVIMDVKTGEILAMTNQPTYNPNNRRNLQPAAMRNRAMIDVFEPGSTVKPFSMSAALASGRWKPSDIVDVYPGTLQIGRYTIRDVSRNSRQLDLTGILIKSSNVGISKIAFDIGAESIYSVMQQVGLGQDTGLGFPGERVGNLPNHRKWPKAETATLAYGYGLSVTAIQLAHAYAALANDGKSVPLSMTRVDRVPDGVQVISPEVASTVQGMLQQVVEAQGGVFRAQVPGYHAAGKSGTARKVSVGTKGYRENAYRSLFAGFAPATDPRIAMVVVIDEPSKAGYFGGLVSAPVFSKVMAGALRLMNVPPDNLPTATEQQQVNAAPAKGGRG
PBP1b, sequence (G3XD31 entry or part of it): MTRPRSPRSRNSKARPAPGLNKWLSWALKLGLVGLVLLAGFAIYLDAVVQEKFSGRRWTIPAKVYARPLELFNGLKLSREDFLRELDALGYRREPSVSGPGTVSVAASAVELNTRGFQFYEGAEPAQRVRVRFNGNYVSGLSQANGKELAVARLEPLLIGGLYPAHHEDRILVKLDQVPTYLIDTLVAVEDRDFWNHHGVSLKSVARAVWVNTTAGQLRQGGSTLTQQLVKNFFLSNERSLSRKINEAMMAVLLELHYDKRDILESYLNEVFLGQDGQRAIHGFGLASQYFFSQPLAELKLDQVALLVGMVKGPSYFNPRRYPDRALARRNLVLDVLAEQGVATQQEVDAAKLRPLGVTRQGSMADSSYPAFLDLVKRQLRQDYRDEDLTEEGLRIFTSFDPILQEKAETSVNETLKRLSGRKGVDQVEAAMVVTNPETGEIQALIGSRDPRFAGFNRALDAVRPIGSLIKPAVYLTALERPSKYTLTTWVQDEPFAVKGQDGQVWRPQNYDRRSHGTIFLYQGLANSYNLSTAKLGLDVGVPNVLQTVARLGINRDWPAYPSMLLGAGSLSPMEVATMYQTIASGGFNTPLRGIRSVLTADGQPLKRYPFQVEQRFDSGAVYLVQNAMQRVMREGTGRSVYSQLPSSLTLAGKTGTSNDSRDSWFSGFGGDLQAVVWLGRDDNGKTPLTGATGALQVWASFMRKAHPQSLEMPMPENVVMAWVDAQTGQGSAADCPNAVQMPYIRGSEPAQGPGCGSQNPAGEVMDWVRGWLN
T3 sequence (Q07806 whole entry): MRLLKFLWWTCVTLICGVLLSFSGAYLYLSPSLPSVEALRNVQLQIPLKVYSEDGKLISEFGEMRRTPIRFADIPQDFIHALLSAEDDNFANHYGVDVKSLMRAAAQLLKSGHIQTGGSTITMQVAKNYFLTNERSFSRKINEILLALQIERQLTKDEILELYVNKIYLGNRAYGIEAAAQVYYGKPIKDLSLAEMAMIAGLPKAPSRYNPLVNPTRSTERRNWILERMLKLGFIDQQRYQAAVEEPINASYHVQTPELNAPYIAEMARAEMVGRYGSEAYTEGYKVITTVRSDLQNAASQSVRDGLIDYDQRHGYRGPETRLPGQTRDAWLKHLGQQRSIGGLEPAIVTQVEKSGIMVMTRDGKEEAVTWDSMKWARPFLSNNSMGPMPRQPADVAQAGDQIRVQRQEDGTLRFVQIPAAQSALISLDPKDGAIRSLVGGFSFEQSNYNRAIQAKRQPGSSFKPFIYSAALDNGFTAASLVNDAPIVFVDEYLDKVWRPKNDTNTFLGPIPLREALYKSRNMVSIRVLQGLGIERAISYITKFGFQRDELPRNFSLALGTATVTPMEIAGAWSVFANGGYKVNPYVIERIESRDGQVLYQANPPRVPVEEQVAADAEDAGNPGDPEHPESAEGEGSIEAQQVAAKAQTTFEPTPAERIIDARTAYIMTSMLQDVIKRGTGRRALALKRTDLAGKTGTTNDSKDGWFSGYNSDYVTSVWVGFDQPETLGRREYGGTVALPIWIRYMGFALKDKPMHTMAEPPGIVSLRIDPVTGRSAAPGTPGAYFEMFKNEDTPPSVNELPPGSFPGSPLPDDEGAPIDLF
PBP4, sequence (Q9HZG1 entry or part of it): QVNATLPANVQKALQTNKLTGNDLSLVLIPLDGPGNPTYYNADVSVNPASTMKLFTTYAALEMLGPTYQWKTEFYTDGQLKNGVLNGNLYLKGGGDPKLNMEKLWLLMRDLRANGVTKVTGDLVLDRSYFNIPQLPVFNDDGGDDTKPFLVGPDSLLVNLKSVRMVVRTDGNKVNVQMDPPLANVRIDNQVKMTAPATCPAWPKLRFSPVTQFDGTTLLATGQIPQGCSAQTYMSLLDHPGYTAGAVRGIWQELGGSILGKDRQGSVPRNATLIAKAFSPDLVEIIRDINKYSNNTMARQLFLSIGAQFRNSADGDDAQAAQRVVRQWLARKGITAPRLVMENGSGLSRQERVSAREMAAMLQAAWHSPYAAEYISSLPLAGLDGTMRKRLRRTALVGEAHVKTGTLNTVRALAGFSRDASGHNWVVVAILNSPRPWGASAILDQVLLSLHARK
PBP5/6, sequence (G3XD74 entry or part of it): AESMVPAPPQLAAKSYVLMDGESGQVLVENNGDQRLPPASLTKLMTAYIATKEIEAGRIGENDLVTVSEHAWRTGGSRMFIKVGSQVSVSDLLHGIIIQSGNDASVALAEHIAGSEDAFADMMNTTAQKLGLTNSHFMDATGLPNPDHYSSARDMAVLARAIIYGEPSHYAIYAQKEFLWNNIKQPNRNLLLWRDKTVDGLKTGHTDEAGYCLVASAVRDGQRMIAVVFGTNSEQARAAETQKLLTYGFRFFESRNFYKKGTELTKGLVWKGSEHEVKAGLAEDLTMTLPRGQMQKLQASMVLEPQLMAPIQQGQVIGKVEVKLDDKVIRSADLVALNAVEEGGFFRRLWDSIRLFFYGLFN
T1 sequence (Q9X6V3 entry or part of it): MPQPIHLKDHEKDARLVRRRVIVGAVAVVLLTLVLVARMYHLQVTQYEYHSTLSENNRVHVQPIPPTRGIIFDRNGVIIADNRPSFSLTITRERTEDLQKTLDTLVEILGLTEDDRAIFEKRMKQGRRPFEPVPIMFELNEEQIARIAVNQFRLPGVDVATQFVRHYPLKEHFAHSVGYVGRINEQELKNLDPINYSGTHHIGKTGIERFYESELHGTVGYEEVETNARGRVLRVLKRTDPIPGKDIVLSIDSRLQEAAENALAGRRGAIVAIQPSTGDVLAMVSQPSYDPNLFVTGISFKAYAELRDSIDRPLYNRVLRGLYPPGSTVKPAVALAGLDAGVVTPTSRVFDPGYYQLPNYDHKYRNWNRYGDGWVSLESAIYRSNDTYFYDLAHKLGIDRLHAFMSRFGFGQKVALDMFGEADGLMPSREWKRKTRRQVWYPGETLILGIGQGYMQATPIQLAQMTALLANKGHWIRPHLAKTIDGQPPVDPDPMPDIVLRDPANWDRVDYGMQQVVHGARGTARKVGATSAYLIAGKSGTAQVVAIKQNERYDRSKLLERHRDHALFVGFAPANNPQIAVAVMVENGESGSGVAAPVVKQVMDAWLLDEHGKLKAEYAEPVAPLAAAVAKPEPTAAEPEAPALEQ

## NC(=O)[C@@H]1CC[C@@H]2CN1C(=O)N2OS(=O)(=O)O [Avibactam]
PBP4
  inhibition at 4 µg/mL: ≤ 50%
PBP2
  PBP2 fraction bound: 20%
PBP5/6
  PBP5/6 binding in whole-cell assay: No significant
PBP3 [1]
  PBP3 binding in whole-cell assay: No significant
PBP1b
  inhibition at 4 µg/mL: 20%
PBP1a
  PBP1a binding in whole-cell assay: No significant
PBP3 [2]
  Mean IC50 ± SD, PBP 3: no PBP1a and 3 binding was detected
PBP3 [2]; read-out: Mean IC50 ± SD, PBP 3 (converted)
  IC50: > 121 µM
[3]; 110-G8, 0 min
  Relative ampC expression: 3.3
[3]; 110-G8, 30 min
  Relative ampC expression: 2.6
[3]; 110-G8, 180 min
  Relative ampC expression: 8.7
[4]; PAO1, 0 min
  Relative ampC expression: 1.1
[4]; PAO1, 30 min
  Relative ampC expression: 5.8
[4]; PAO1, 180 min
  Relative ampC expression: 60.6 ± 25.2
[4]; PAO1, 180 min, listed as AVI
  Relative ampC expression: 60.6
